In brackets after ≈: the same amount, converted by molar mass. Activity calls are given as the source filed them. The rule behind the calls is not given here.
Experiments:
Staphylococcus aureus [1] = assay: Antibacterial activity against 1 x 10^7 CFU methicillin-susceptible Staphylococcus aureus Giorgio after 18 hrs by CLSI 2-fold agar dilution method; type: functional
Staphylococcus aureus [2] = assay: Antibacterial activity against methicillin-resistant Staphylococcus aureus p125 assessed as bacteriostatic at 8 times MIC after 24 hrs by […] method; type: functional, organism-based
Streptococcus pneumoniae [3] = assay: Antibacterial activity against 10^4 to 10^5 CFU Streptococcus pneumoniae after 18 hrs by CLSI 2-fold agar dilution method; type: functional
Staphylococcus aureus [4] = assay: Antibacterial activity against methicillin-susceptible Staphylococcus aureus Giorgio assessed as bacteriostatic at MIC after 24 hrs by […] method; type: functional, organism-based
Haemophilus influenzae [5] = assay: Antibacterial activity against 7.5 x 10^8 CFU Haemophilus influenzae hd2 after 18 hrs by CLSI 2-fold agar dilution method; type: functional; details: hd2, 18 h
Staphylococcus aureus [6] = assay: Antibacterial activity against methicillin-susceptible Staphylococcus aureus Giorgio assessed as bacterial regrowth at 4 times MIC after 24 hrs by […] method; type: functional, organism-based
Enterococcus faecium = assay: Antibacterial activity against 10^4 to 10^5 CFU Enterococcus faecium after 18 hrs by CLSI 2-fold agar dilution method; type: functional
Enterococcus faecalis [7] = assay: Antibacterial activity against 10^4 to 10^5 CFU Enterococcus faecalis after 18 hrs by CLSI 2-fold agar dilution method; type: functional
Staphylococcus aureus [8] = assay: Antibacterial activity against methicillin-susceptible Staphylococcus aureus Giorgio assessed as bacteriostatic at 4 times MIC after 24 hrs by […] method; type: functional, organism-based
Streptococcus pneumoniae [9] = assay: Antibacterial activity against 1 x 10^4 CFU Streptococcus pneumoniae ATCC 6305 after 18 hrs by CLSI 2-fold agar dilution method; type: functional; details: ATCC 6305, 18 h
Staphylococcus aureus [10] = assay: Antibacterial activity against methicillin-resistant Staphylococcus aureus p125 assessed as bacterial regrowth at 8 times MIC after 24 hrs by […] method; type: functional, organism-based
Enterococcus = assay: Antibacterial activity against 10^4 to 10^5 CFU vancomycin-resistant Enterococcus after 18 hrs by CLSI 2-fold agar dilution method; type: functional
Staphylococcus aureus [11] = assay: Antibacterial activity against 10^4 to 10^5 CFU methicillin-resistant Staphylococcus aureus after 18 hrs by CLSI 2-fold agar dilution method; type: functional
Staphylococcus [12] = assay: Antibacterial activity against 10^4 to 10^5 CFU methicillin-susceptible coagulase-negative Staphylococcus after 18 hrs by CLSI 2-fold agar dilution method; type: functional
Streptococcus pyogenes = assay: Antibacterial activity against 10^4 to 10^5 CFU Streptococcus pyogenes after 18 hrs by CLSI 2-fold agar dilution method; type: functional
Staphylococcus aureus [13] = assay: Antibacterial activity against methicillin-resistant Staphylococcus aureus p125 assessed as bacterial regrowth at 4 times MIC after 24 hrs by […] method; type: functional, organism-based
Staphylococcus aureus [14] = assay: Antibacterial activity against methicillin-susceptible Staphylococcus aureus Giorgio assessed as bacteriostatic at 2 times MIC after 24 hrs by […] method; type: functional, organism-based
Staphylococcus aureus [15] = assay: Antibacterial activity against 1 x 10^8 CFU methicillin-resistant Staphylococcus aureus p125 after 18 hrs by CLSI 2-fold agar dilution method; type: functional; details: p125, 18 h
Moraxella catarrhalis = assay: Antibacterial activity against 10^4 to 10^5 CFU Moraxella catarrhalis after 18 hrs by CLSI 2-fold agar dilution method; type: functional
Haemophilus influenzae [16] = assay: Antibacterial activity against 10^4 to 10^5 CFU Haemophilus influenzae after 18 hrs by CLSI 2-fold agar dilution method; type: functional
Staphylococcus aureus [17] = assay: Antibacterial activity against methicillin-susceptible Staphylococcus aureus Giorgio assessed as bacteriostatic at 8 times MIC after 24 hrs by […] method; type: functional, organism-based
Staphylococcus aureus [18] = assay: Antibacterial activity against methicillin-susceptible Staphylococcus aureus Giorgio assessed as bacterial regrowth at 8 times MIC after 24 hrs by […] method; type: functional, organism-based
Staphylococcus aureus [19] = assay: Antibacterial activity against methicillin-resistant Staphylococcus aureus p125 assessed as bacteriostatic at MIC after 24 hrs by […] method; type: functional, organism-based
Enterococcus faecalis [20] = assay: Antibacterial activity against 2 x 10^8 CFU Enterococcus faecalis u810 after 18 hrs by CLSI 2-fold agar dilution method; type: functional; details: u810, 18 h
Staphylococcus aureus [21] = assay: Antibacterial activity against methicillin-resistant Staphylococcus aureus p125 assessed as bacteriostatic at 2 times MIC after 24 hrs by […] method; type: functional, organism-based
Staphylococcus aureus [22] = assay: Antibacterial activity against methicillin-resistant Staphylococcus aureus p125 assessed as bacteriostatic at 4 times MIC after 24 hrs by […] method; type: functional, organism-based
Staphylococcus aureus [23] = assay: Antibacterial activity against 10^4 to 10^5 CFU methicillin-susceptible Staphylococcus aureus after 18 hrs by CLSI 2-fold agar dilution method; type: functional
Staphylococcus [24] = assay: Antibacterial activity against 10^4 to 10^5 CFU methicillin-resistant coagulase-negative Staphylococcus after 18 hrs by CLSI 2-fold agar dilution method; type: functional

For CN1CCN(c2ccc(N3C[C@H](CO)OC3=O)cc2F)C=N1 [DELPAZOLID], the MIC (Staphylococcus aureus [1]) was 1 µg/mL (≈ 3.24 µM), the Activity (Staphylococcus aureus [2]) was “Active” and the MIC50 (Streptococcus pneumoniae [3]) was 0.5 µg/mL (≈ 1.62 µM). For the same compound, the MIC90 (Streptococcus pneumoniae [3]) was 1 µg/mL (≈ 3.24 µM), the Activity (Staphylococcus aureus [4]) was “Active” and the MIC (Haemophilus influenzae [5]) was 8 µg/mL (≈ 25.9 µM). For the same compound, the Activity (Staphylococcus aureus [6]) was “Active”, the MIC50 (Enterococcus faecium) was 2 µg/mL (≈ 6.49 µM) and the MIC90 (Enterococcus faecium) was 2 µg/mL (≈ 6.49 µM). For the same compound, the MIC50 (Enterococcus faecalis [7]) was 2 µg/mL (≈ 6.49 µM), the MIC90 (Enterococcus faecalis [7]) was 2 µg/mL (≈ 6.49 µM) and the Activity (Staphylococcus aureus [8]) was “Active”. The MIC (Streptococcus pneumoniae [9]) was 0.5 µg/mL (≈ 1.62 µM), the Activity (Staphylococcus aureus [10]) was “Active” and the MIC (Enterococcus) was 1 µg/mL (≈ 3.24 µM). It also gave an MIC50 (Enterococcus) of 1 µg/mL (≈ 3.24 µM), an MIC90 (Enterococcus) of 1 µg/mL (≈ 3.24 µM) and an MIC50 (Staphylococcus aureus [11]) of 1 µg/mL (≈ 3.24 µM). The MIC90 (Staphylococcus aureus [11]) was 2 µg/mL (≈ 6.49 µM), the MIC (Staphylococcus [12]) was 0.5 µg/mL (≈ 1.62 µM) and the MIC50 (Staphylococcus [12]) was 0.5 µg/mL (≈ 1.62 µM). It also gave an MIC90 (Staphylococcus [12]) of 0.5 µg/mL (≈ 1.62 µM), an MIC50 (Streptococcus pyogenes) of 1 µg/mL (≈ 3.24 µM) and an MIC90 (Streptococcus pyogenes) of 2 µg/mL (≈ 6.49 µM). For the same compound, the Activity (Staphylococcus aureus [13]) was “Active”, the Activity (Staphylococcus aureus [14]) was “Active” and the MIC (Staphylococcus aureus [15]) was 1 µg/mL (≈ 3.24 µM). It also gave an MIC50 (Moraxella catarrhalis) of 4 µg/mL (≈ 13 µM), an MIC90 (Moraxella catarrhalis) of 8 µg/mL (≈ 25.9 µM) and an MIC50 (Haemophilus influenzae [16]) of 8 µg/mL (≈ 25.9 µM). The MIC90 (Haemophilus influenzae [16]) was 8 µg/mL (≈ 25.9 µM), the Activity (Staphylococcus aureus [17]) was “Active” and the Activity (Staphylococcus aureus [18]) was “Active”. For the same compound, the Activity (Staphylococcus aureus [19]) was “Active”, the MIC (Enterococcus faecalis [20]) was 2 µg/mL (≈ 6.49 µM) and the Activity (Staphylococcus aureus [21]) was “Active”. For the same compound, the Activity (Staphylococcus aureus [22]) was “Active”, the MIC50 (Staphylococcus aureus [23]) was 1 µg/mL (≈ 3.24 µM) and the MIC90 (Staphylococcus aureus [23]) was 2 µg/mL (≈ 6.49 µM). It also gave an MIC (Staphylococcus [24]) of 0.5 µg/mL (≈ 1.62 µM), an MIC50 (Staphylococcus [24]) of 0.5 µg/mL (≈ 1.62 µM) and an MIC90 (Staphylococcus [24]) of 0.5 µg/mL (≈ 1.62 µM).
In the case of CC[C@H]1OC(=O)[C@H](C)[C@@H](O[C@H]2C[C@@](C)(OC)[C@@H](O)[C@H](C)O2)[C@H](C)[C@@H](O[C@@H]2O[C@H](C)C[C@H](N(C)C)[C@H]2O)[C@](C)(O)C[C@@H](C)C(=O)[C@H](C)[C@@H](O)[C@]1(C)O [ERYTHROMYCIN], the MIC50 (Streptococcus pneumoniae [3]) is reported as 64 µg/mL (≈ 87.2 µM), the MIC90 (Streptococcus pneumoniae [3]) is reported as > 64 µg/mL and the MIC50 (Enterococcus faecium) is reported as > 64 µg/mL. The MIC90 (Enterococcus faecium) was > 64 µg/mL, the MIC50 (Enterococcus faecalis [7]) was > 64 µg/mL and the MIC90 (Enterococcus faecalis [7]) was > 64 µg/mL. The MIC50 (Enterococcus) was > 64 µg/mL, the MIC90 (Enterococcus) was > 64 µg/mL and the MIC50 (Staphylococcus aureus [11]) was > 64 µg/mL. For the same compound, the MIC50 (Staphylococcus [12]) was 0.25 µg/mL (≈ 0.341 µM), the MIC90 (Staphylococcus [12]) was > 64 µg/mL and the MIC50 (Streptococcus pyogenes) was 0.06 µg/mL (≈ 0.0818 µM). It also gave an MIC90 (Streptococcus pyogenes) of 2 µg/mL (≈ 2.73 µM), an MIC (Haemophilus influenzae [16]) of 64 µg/mL (≈ 87.2 µM) and an MIC50 (Haemophilus influenzae [16]) of 64 µg/mL (≈ 87.2 µM). For the same compound, the MIC90 (Haemophilus influenzae [16]) was > 64 µg/mL, the MIC50 (Staphylococcus aureus [23]) was 0.25 µg/mL (≈ 0.341 µM) and the MIC90 (Staphylococcus aureus [23]) was > 64 µg/mL. The MIC50 (Staphylococcus [24]) was > 64 µg/mL.
CN[C@H](CC(C)C)C(=O)N[C@H]1C(=O)N[C@@H](CC(N)=O)C(=O)N[C@H]2C(=O)N[C@H]3C(=O)N[C@H](C(=O)N[C@H](C(=O)O)c4cc(O)cc(O)c4-c4cc3ccc4O)[C@H](O)c3ccc(c(Cl)c3)Oc3cc2cc(c3O[C@@H]2O[C@H](CO)[C@@H](O)[C@H](O)[C@H]2O[C@H]2C[C@](C)(N)[C@H](O)[C@H](C)O2)Oc2ccc(cc2Cl)[C@H]1O [VANCOMYCIN] showed an MIC50 (Streptococcus pneumoniae [3]) of 0.5 µg/mL (≈ 0.345 µM), an MIC90 (Streptococcus pneumoniae [3]) of 1 µg/mL (≈ 0.69 µM) and an MIC50 (Enterococcus faecium) of 1 µg/mL (≈ 0.69 µM). For the same compound, the MIC90 (Enterococcus faecium) was 2 µg/mL (≈ 1.38 µM), the MIC50 (Enterococcus faecalis [7]) was 2 µg/mL (≈ 1.38 µM) and the MIC90 (Enterococcus faecalis [7]) was 4 µg/mL (≈ 2.76 µM). For the same compound, the MIC50 (Enterococcus) was > 64 µg/mL, the MIC90 (Enterococcus) was > 64 µg/mL and the MIC50 (Staphylococcus aureus [11]) was 1 µg/mL (≈ 0.69 µM). The MIC90 (Staphylococcus aureus [11]) was 2 µg/mL (≈ 1.38 µM), the MIC50 (Staphylococcus [12]) was 2 µg/mL (≈ 1.38 µM) and the MIC90 (Staphylococcus [12]) was 4 µg/mL (≈ 2.76 µM). For the same compound, the MIC50 (Streptococcus pyogenes) was 1 µg/mL (≈ 0.69 µM), the MIC90 (Streptococcus pyogenes) was 1 µg/mL (≈ 0.69 µM) and the MIC50 (Haemophilus influenzae [16]) was > 64 µg/mL. For the same compound, the MIC90 (Haemophilus influenzae [16]) was > 64 µg/mL, the MIC50 (Staphylococcus aureus [23]) was 1 µg/mL (≈ 0.69 µM) and the MIC90 (Staphylococcus aureus [23]) was 1 µg/mL (≈ 0.69 µM). It also gave an MIC50 (Staphylococcus [24]) of 2 µg/mL (≈ 1.38 µM) and an MIC90 (Staphylococcus [24]) of 2 µg/mL (≈ 1.38 µM).

Source: ChEMBL document CHEMBL1671764, “In vitro and in vivo activities of LCB01-0371, a new oxazolidinone” (2010)
